{"source": "patent US11440899B2", "about": "“Pyrimidine TBK/IKKe inhibitor compounds and uses thereof” (Merck Patent GmbH, priority 2017, dated 2022)", "key": {"TBK1": {"target": "TBK1 (Homo sapiens (Human), UniProt Q9UHD2)", "sequence (Q9UHD2 whole entry, species assumed)": "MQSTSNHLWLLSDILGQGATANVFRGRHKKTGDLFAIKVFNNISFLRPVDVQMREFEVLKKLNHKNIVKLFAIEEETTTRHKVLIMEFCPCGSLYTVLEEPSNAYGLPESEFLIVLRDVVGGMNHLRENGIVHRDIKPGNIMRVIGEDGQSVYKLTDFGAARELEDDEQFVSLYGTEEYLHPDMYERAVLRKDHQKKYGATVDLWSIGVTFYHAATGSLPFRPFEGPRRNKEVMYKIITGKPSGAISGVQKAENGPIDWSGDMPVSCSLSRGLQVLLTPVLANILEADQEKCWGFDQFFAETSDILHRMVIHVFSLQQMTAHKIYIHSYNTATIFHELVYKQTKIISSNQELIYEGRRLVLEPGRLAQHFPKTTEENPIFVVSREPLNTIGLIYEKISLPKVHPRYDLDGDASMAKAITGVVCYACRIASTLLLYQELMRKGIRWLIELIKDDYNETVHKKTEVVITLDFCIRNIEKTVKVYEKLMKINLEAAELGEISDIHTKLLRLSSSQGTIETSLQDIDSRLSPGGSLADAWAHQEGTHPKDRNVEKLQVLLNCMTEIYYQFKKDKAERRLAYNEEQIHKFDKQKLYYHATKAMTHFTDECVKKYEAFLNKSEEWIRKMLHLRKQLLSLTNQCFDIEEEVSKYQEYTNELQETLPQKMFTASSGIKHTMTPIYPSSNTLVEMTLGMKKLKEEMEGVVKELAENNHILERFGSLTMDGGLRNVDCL", "assay": "TBK Biochemical Assay", "in_short": "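Enzyme and substrate with compound (10-point 1:4 series, top 30 uM final, 1% DMSO) incubated 90 min at 25 °C, then stopped; substrate/product separated and read by LabChip mobility-shift, staurosporine 10 uM final as full-inhibition control.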"}, "IKKe": {"target": "IKKe (Homo sapiens (Human), UniProt Q14164)", "sequence (Q14164 whole entry, species assumed)": "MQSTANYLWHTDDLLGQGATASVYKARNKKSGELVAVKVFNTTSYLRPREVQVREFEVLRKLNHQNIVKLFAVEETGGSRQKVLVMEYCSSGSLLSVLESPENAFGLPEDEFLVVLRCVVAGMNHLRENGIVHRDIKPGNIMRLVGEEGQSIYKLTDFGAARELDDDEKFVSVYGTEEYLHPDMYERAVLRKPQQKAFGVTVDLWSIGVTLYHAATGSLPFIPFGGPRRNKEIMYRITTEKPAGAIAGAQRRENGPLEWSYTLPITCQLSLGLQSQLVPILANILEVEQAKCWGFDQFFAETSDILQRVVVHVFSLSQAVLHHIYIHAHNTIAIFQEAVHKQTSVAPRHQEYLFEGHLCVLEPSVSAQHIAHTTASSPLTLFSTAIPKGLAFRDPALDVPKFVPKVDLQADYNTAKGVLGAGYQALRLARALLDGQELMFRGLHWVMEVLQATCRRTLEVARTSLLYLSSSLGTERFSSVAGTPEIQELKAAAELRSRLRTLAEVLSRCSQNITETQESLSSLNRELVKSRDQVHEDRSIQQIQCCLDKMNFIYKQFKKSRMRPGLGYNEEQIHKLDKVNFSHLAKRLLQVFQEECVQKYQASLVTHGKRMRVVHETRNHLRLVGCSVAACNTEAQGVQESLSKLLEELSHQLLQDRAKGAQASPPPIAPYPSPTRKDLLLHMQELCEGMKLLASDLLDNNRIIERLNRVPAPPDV", "assay": "IKKe Biochemical Assay", "in_short": "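Human IKKε activity was measured with compounds in a 10-point 1:4 dilution series, top concentration 30 uM final, in 1% DMSO final; 10 uM staurosporine served as the control. Enzyme and substrate were incubated 90 min at 25° C, then stopped, and substrate/product peaks were separated by microfluidic mobility-shift on a LabChip EZ Reader II.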"}}, "data": [{"smiles": "COc1nc(Nc2cc(-c3ccc(O[C@H]4CCN(C(=O)[C@H](C)O)CC4(F)F)c(C#N)c3)ncn2)ccc1C1CCN(C2COC2)CC1", "note": "[Example 93, 2-[[(4S)-3,3-difluoro-1-[(2S)-2-hydroxypropanoyl]piperidin-4-yl]oxy]-5-[6-([6-methoxy-5-[1-(oxetan-3-yl)piperidin-4-yl]pyridin-2-yl]amino)pyrimidin-4-yl]benzonitrile]", "values": [{"measurement": "IC50", "setting": "TBK1", "result": "< 100", "unit": "nM"}, {"measurement": "IC50", "setting": "IKKe", "result": "< 100", "unit": "nM"}]}, {"smiles": "COc1nc(Nc2cc(-c3ccc(O[C@@H]4CCN(C(=O)[C@H](C)O)CC4(F)F)c(C#N)c3)ncn2)ccc1C1CCN(C2COC2)CC1", "note": "[Example 94, 2-[[(4R)-3,3-difluoro-1-[(2S)-2-hydroxypropanoyl]piperidin-4-yl]oxy]-5-[6-([6-methoxy-5-[1-(oxetan-3-yl)piperidin-4-yl]pyridin-2-yl]amino)pyrimidin-4-yl]benzonitrile]", "values": [{"measurement": "IC50", "setting": "TBK1", "result": "< 100", "unit": "nM"}, {"measurement": "IC50", "setting": "IKKe", "result": "< 100", "unit": "nM"}]}, {"smiles": "COc1nc(Nc2cc(-c3ccc(O[C@H]4CCN(C(=O)[C@@H](C)O)CC4(F)F)c(C#N)c3)ncn2)ccc1N1CCN(C2COC2)CC1", "note": "[Example 95, 2-[[(4S)-3,3-difluoro-1-[(2R)-2-hydroxypropanoyl]piperidin-4-yl]oxy]-5-[6-([6-methoxy-5-[4-(oxetan-3-yl)piperazin-1-yl]pyridin-2-yl]amino)pyrimidin-4-yl]benzonitrile]", "values": [{"measurement": "IC50", "setting": "TBK1", "result": "< 100", "unit": "nM"}, {"measurement": "IC50", "setting": "IKKe", "result": "< 100", "unit": "nM"}]}, {"smiles": "COc1nc(Nc2cc(-c3ccc(OC4CCN(C(=O)[C@@H](C)O)CC4(F)F)c(C#N)c3)ncn2)ccc1C1CCN(C2COC2)CC1", "note": "(stereo partly drawn) [Example 97, 2-([3,3-difluoro-1-[(2R)-2-hydroxypropanoyl]piperidin-4-yl]oxy)-5-[6-([6-methoxy-5-[1-(oxetan-3-yl)piperidin-4-yl]pyridin-2-yl]amino)pyrimidin-4-yl]benzonitrile]", "values": [{"measurement": "IC50", "setting": "TBK1", "result": "< 100", "unit": "nM"}, {"measurement": "IC50", "setting": "IKKe", "result": "< 100", "unit": "nM"}]}, {"smiles": "COc1nc(Nc2cc(-c3ccc(O[C@@H]4CCN(C(=O)[C@@H](C)O)CC4(F)F)c(C#N)c3)ncn2)ccc1N1CCN(C2COC2)C[C@@H]1C", "note": "[Example 98, 2-((R)-3,3-difluoro-1-((R)-2-hydroxypropanoyl)piperidin-4-yloxy)-5-(6-(6-methoxy-5-((S)-2-methyl-4-(oxetan-3-yl)piperazin-1-yl)pyridin-2-ylamino)pyrimidin-4-yl)benzonitrile]", "values": [{"measurement": "IC50", "setting": "TBK1", "result": "< 100", "unit": "nM"}, {"measurement": "IC50", "setting": "IKKe", "result": "< 100", "unit": "nM"}]}, {"smiles": "COc1nc(Nc2cc(-c3ccc(O[C@H]4CCN(C(=O)[C@@H](C)O)CC4(F)F)c(C#N)c3)ncn2)ccc1N1CCN(C2COC2)C[C@@H]1C", "note": "[Example 99, 2-((S)-3,3-difluoro-1-((R)-2-hydroxypropanoyl)piperidin-4-yloxy)-5-(6-(6-methoxy-5-((S)-2-methyl-4-(oxetan-3-yl)piperazin-1-yl)pyridin-2-ylamino)pyrimidin-4-yl)benzonitrile]", "values": [{"measurement": "IC50", "setting": "TBK1", "result": "< 100", "unit": "nM"}, {"measurement": "IC50", "setting": "IKKe", "result": "< 100", "unit": "nM"}]}, {"smiles": "COc1nc(Nc2cc(-c3ccc(OC4CCOCC4)c(C#N)c3)ncn2)ccc1N1CCN(C2COC2)CC1", "note": "[Example 100, 5-[6-({6-methoxy-5-[4-(oxetan-3-yl)piperazin-1-yl]pyridin-2-yl}amino)pyrimidin-4-yl]-2-(oxan-4-yloxy)benzonitrile]", "values": [{"measurement": "IC50", "setting": "TBK1", "result": "< 100", "unit": "nM"}, {"measurement": "IC50", "setting": "IKKe", "result": "< 100", "unit": "nM"}]}, {"smiles": "COc1nc(Nc2cc(-c3ccc(O[C@H]4CCN(C(=O)[C@H](C)O)CC4(F)F)c(C#N)c3)ncn2)ccc1N1CCN(C2COC2)C[C@@H]1C", "note": "[Example 101, 2-[[(4S)-3,3-difluoro-1-[(2S)-2-hydroxypropanoyl]piperidin-4-yl]oxy]-5-[6-([6-methoxy-5-[(2S)-2-methyl-4-(oxetan-3-yl)piperazin-1-yl]pyridin-2-yl]amino)pyrimidin-4-yl]benzonitrile]", "values": [{"measurement": "IC50", "setting": "TBK1", "result": "< 100", "unit": "nM"}, {"measurement": "IC50", "setting": "IKKe", "result": "< 100", "unit": "nM"}]}, {"smiles": "COc1nc(Nc2cc(-c3ccc(O[C@@H]4CCN(C(=O)[C@H](C)O)CC4(F)F)c(C#N)c3)ncn2)ccc1N1CCN(C2COC2)C[C@@H]1C", "note": "[Example 102, 2-[[(4R)-3,3-difluoro-1-[(2S)-2-hydroxypropanoyl]piperidin-4-yl]oxy]-5-[6-([6-methoxy-5-[(2S)-2-methyl-4-(oxetan-3-yl)piperazin-1-yl]pyridin-2-yl]amino)pyrimidin-4-yl]benzonitrile]", "values": [{"measurement": "IC50", "setting": "TBK1", "result": "< 100", "unit": "nM"}, {"measurement": "IC50", "setting": "IKKe", "result": "< 100", "unit": "nM"}]}, {"smiles": "COc1nc(Nc2cc(-c3ccc(O[C@H]4CCN(C(=O)[C@H](C)O)CC4(F)F)c(C#N)c3)ncn2)ccc1N1CCN(C2COC2)C[C@H]1C", "note": "[Example 103, 2-[[(4S)-3,3-difluoro-1-[(2S)-2-hydroxypropanoyl]piperidin-4-yl]oxy]-5-[6-([6-methoxy-5-[(2R)-2-methyl-4-(oxetan-3-yl)piperazin-1-yl]pyridin-2-yl]amino)pyrimidin-4-yl]benzonitrile]", "values": [{"measurement": "IC50", "setting": "TBK1", "result": "< 100", "unit": "nM"}, {"measurement": "IC50", "setting": "IKKe", "result": "< 100", "unit": "nM"}]}, {"smiles": "COc1nc(Nc2cc(-c3ccc(O[C@@H]4CCN(C(=O)[C@H](C)O)CC4(F)F)c(C#N)c3)ncn2)ccc1N1CCN(C2COC2)C[C@H]1C", "note": "[Example 104, 2-[[(4R)-3,3-difluoro-1-[(2S)-2-hydroxypropanoyl]piperidin-4-yl]oxy]-5-[6-([6-methoxy-5-[(2R)-2-methyl-4-(oxetan-3-yl)piperazin-1-yl]pyridin-2-yl]amino)pyrimidin-4-yl]benzonitrile]", "values": [{"measurement": "IC50", "setting": "TBK1", "result": "< 100", "unit": "nM"}, {"measurement": "IC50", "setting": "IKKe", "result": "< 100", "unit": "nM"}]}, {"smiles": "COc1nc(Nc2cc(-c3ccc(OC4CCN(C(=O)[C@H](C)O)CC4)c(C#N)c3)ncn2)ccc1C(=O)N(C)C", "note": "[Example 105, 6-([6-[3-cyano-4-([1-[(2S)-2-hydroxypropanoyl]piperidin-4-yl]oxy)phenyl]pyrimidin-4-yl]amino)-2-methoxy-N,N-dimethylpyridine-3-carboxamide]", "values": [{"measurement": "IC50", "setting": "TBK1", "result": "< 100", "unit": "nM"}, {"measurement": "IC50", "setting": "IKKe", "result": "< 100", "unit": "nM"}]}]}
